Experimental data reported in patent US20110046071A1 (TEL HASHOMER MEDICAL RESEARCH INFRASTRUCTURE AND SERVICES …, priority 2008, published 2011).
“Also recorded” adds a separate entry of the source.

Key:
[1] = cited from earlier work
[2] = tested on: cAMP levels in MCF-7 cells; experiment: cAMP radioimmunoassay; type: cell-based; conditions: 5 minutes; for cAMP accumulation / production: exendin-4 5 nM, GLP-1 5 nM, exendin (9-39) 100 nM, 2′5′-dideoxy adenosine 30 μM (60 minutes preincubation)
Protocol: cAMP measurements: For cAMP measurement, a radioimmunoassay was carried out as follows: cells and 100 μl media were snap frozen in liquid nitrogen, thawed and diluted in buffer acetate. […] Bound cAMP was precipitated and counted in a γ-counter, and concentration determined using a standard curve and positive controls.

MCF-7 cells [3] = conditions: human, 72 h, 50 nM
Protocol: Doxorubicin is a commonly used chemotherapy against breast cancer.
Media and treatments were changed once after 48 hrs. After 72 hrs of incubation at 37° C., 5% CO2, the cells were cultured for four hours with 10% MIT reagent (5 mg/ml; Sigma-Aldrich). The medium was aspirated, and the cells were dissolved by dimethyl sulfoxide (DMSO). Absorbance of the formazan product was measured by an enzyme-linked immunosorbent assay reader.

[4] = in vivo; cited from earlier work
MCF-7 cells [5] = experiment: cells; type: cell-based; conditions: Homo sapiens, MCF7, read-out: inhibition of cell viability
Description: Human embryonic kidney HEK-293 and primary liver cells were used as controls.
Medium was replaced once after 48 hrs.

[6] = tested on: CREB, p38, ERK1/2, AKT, AMPK in MCF-7 cells; experiment: Western blot of signaling pathways (CREB, p38, ERK1/2, AKT, AMPK, ACC); type: cell-based; conditions: for AMPK and ACC phosphorylation (AMP kinase activity): comparable to the AMPK activator AICAR
Protocol: 50 μg protein extracts were loaded on 10% polyacrylamide gels, separated electrophoretically and blotted from the gel onto nitrocellulose membrane (Schleicher & Schuell Bioscience GmbH, Dassel, Del.). The membranes were then immunoblotted with the indicated antibodies. Band intensities were quantified using ImageJ software. Colony assays: 200 cells/well were plated on 12-well plate. […] Medium was replaced twice a week and at day 14, the cells were stained using crystal violet. Quantification of the results was performed using ImageJ.

Compound	cAMP accumulation / production [2]	crossing of the blood-brain barrier [4]	p38 MAPK activation / phosphorylation [6]	CREB phosphorylation ([6]; 15 minutes)	AMPK and ACC phosphorylation (AMP kinase activity) [6]	further results
N[C@@H](CC(=O)N1CCn2c(nnc2C(F)(F)F)C1)Cc1cc(F)c(F)cc1F [Sitagliptin, (2R)-4-oxo-4-[3-(trifluoromethyl)-5,6-dihydro[1,2,4]triazolo[4,3-a]pyrazin-7(8H)-yl]-1-(2,4,5-trifluorophenyl)butan-2-amine]	–	–	–	–	–	eliminated without being metabolized ([1]; human subjects, via the kidney): 74%; half life ([1]; in vivo): 8 to 12 h
C[C@H]1O[C@@H](n2cnc3c(N)ncnc32)C[C@@H]1O [ddA, 2′5′ dideoxy-adenosine]	inhibited	–	–	–	–	–
COc1cccc2c1C(=O)c1c(O)c3c(c(O)c1C2=O)C[C@@](O)(C(=O)CO)C[C@@H]3O[C@H]1C[C@H](N)[C@H](O)[C@H](C)O1 [doxorubicin]	–	does not cross the blood-brain barrier	–	–	–	reduction of viability (MCF-7 cells [3]): 20%
C=C[C@@]1(C)CC(=O)[C@]2(O)[C@@]3(C)[C@@H](O)CCC(C)(C)[C@@H]3[C@H](O)[C@H](OC(C)=O)[C@@]2(C)O1 [forskolin]	–	–	–	–	–	cytotoxicity at 1 µM (MCF-7 cells [5]): 60%; elevation of cAMP levels ([2]; forskolin 1 μM): 6 fold
Glucagon-like peptide 1 [GLP-1]	elevated; also recorded: similar	able to cross the blood-brain barrier	induced; also recorded: activated	induced; also recorded: CREB phosphorylation	phosphorylated	ERK1/2 and AKT pathways ([6]; 15 minutes): Neither GLP-1 nor exendin-4 affected; also recorded: neither ERK1/2 nor AKT were affected
exendin(9-39)	increased cAMP accumulation similarly to exendin-4 and GLP-1	–	enhanced	enhanced	phosphorylated	–
